Test results: patent publication US20110028566A1, “COMPOSITIONS AND PRODUCTS CONTAINING CYCLOALIPHATIC DIOL ANTIMICROBIAL AGENTS AND METHODS OF USING THE COMPOSITIONS AND PRODUCTS” (EASTMAN CHEMICAL COMPANY, priority 2009, published 2011)
“And” between values parts separate entries of the source, which are not always exact repeats. Equal entries are not always repeated.

Tests used:
Format in all cases: cell-based
[1] = test system: biodiesel-acclimated bioslime; assay: 15-day biofouling control in B-100 biodiesel:Bushnell-Haas broth, visual turbidity; design: key to Growth (visual turbidity rating): 0 = No Growth; 1 = Slight Growth; 2 = Moderate Growth; 3 = Heavy Growth; conditions: 15 days, 22° C.; for Enhancement of the preservative (inhibitory) action of Killem biocide (in words): B-100 biodiesel, bioslime or trivalent bacterial-fungal inocula (Tables 54 & 55); for Growth (visual turbidity rating): biocide 0 mg/L, bioslime inoculum 50 uL
Experimental: Antimicrobial efficacy data (Table 54 & Table 55) were obtained for 1,4-CHDM with and without biocide in protection of B-100 biodiesel from microbial growth derived via either biodiesel-acclimated bioslime or trivalent bacterial-fungal inocula after 15-day exposure at 22° C. This testing was via a visual turbidity methodology. Neither micro-liter plates nor automatic plate reader could be used in this experiment due to the inherent biphasic nature of the system. B-100 biodiesel:Bushnell-Haas broth was used, which is a minimal salts medium specially designed for evaluating growth of microorganisms on hydrocarbons. Samples were evaluated visually (i.e., the more the turbidity, the more the growth, the less the turbidity, the less the growth, and no turbidity means no growth).

[2] = test system: Staphylococcus aureus ATCC 25923; assay: MIC determination and synergy testing (Kull synergy index), microplate; conditions: for QA, MIC of CHDM alone / QA/a: concentration of CHDM alone (QA, MIC): S. aureus; for QA/a: concentration of CHDM alone (QA, MIC): Table 49
Outline: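 Broth microdilution in TSB (pH 7.3) for bacteria or SDB (pH 5.6) for C. albicans, 1:1.3333 serial dilutions covering one log in nine steps, agents alone or blended for synergy; triplicate wells inoculated to ~10^6 CFU/mL bacteria or ~10^5 CFU/mL yeast; uninoculated wells correct compound turbidity.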

[3] = test system: Candida albicans ATCC 10231; assay: as above; design: QA/a: unit not given beside the values; conditions: for QA, MIC of CHDM alone / QA/a: concentration of CHDM alone (QA, MIC): C. albicans; for QA/a: concentration of CHDM alone (QA, MIC): Table 46
Experimental: The test cultures are listed in Table 7 along with the incubation temperatures used for growth and minimum inhibitory concentration (MIC) testing. […] C. albicans was cultured in Sabouraud dextrose broth (SDB) for approximately 44-52 hours for preparation of inoculum. A. niger was cultured on Sabouraud dextrose agar (SDA) for 3-4 days until there was confluent growth and visible spore formation. Spores were harvested from the SDA plates by flooding the surface of the plate with 5-10 mL of phosphate-buffered saline (PBS) and gently spreading the liquid across the surface of the plate with a sterile T-shaped plastic spreader (Copan Diagnostics) until there was a well-mixed suspension of spores. The resulting spore suspension was collected using a serological pipette and stored at 2-8° C. until use.
Inoculum concentration was determined by dilution plating of the cultures or spore suspension. A serial dilution in PBS was made to 10^−8 for the bacterial cultures or 10^−5 for the fungal cultures. Fifty or 100 μL of the final dilution was spread on two Trypticase-soy agar (TSA) plates for bacteria or two SDA plates for fungi. After 24 to 48 hours plates were counted and the concentrations used in each experiment were calculated.
The antimicrobial agents tested for synergy along with the respective diluents and working stock solution concentrations are shown below. For determination of MIC ranges, individual antimicrobial agent stock solutions were added to sterile medium to yield the highest level test concentrations, and then serially diluted in the medium to prepare the range of test concentrations. For synergy testing individual test concentrations were prepared in sterile medium, and then blended to form the desired combinations.
MICs were determined using a high-throughput microplate method. Individual antimicrobial agents were added to TSB (pH 7.3) for bacterial testing or SDB (pH 5.6) for fungal testing at the highest concentration to be tested. A serial dilution series was prepared at a dilution ratio of 1:1.3333 such that a one log range was covered in nine dilutions. Two-hundred microliters of the diluted antimicrobial agents were dispensed into four wells each of a sterile, 96-well, flat-bottom microplate (Nalge Nunc International). Four additional wells of the highest concentration were dispensed to serve as uninoculated high-level controls. Eight additional wells containing only broth medium were also prepared, four to serve as negative controls and four as positive controls. Three wells of each antimicrobial agent dilution were inoculated with one of the test strains in Table 7. The final well of each antimicrobial agent dilution was left uninoculated to serve as a control (and means of compensating) for any absorbance/turbidity due to the test compounds.
Microplates were inoculated using the cultures or spore suspensions prepared as described above. The S. aureus cultures were used undiluted, while the E. coli and P. aeruginosa cultures were used either undiluted or after a 1:2 dilution in sterile TSB. The C. albicans cultures were used either undiluted or following a 2-fold concentration by centrifugation. One of two means of inoculation was used to deliver a final concentration of approximately 10^5 colony-forming units (CFU)/mL of C. albicans, 10^5 spores/mL of A. niger, or 10^6 CFU/mL of bacteria. The primary method used a stainless steel pin replicator (Nalge Nunc International) mounted on a hand-operated bench-top press (Schmidt Technology Corporation) fitted with a custom-built microplate holder to dispense one microliter of each inoculum from a “master” plate containing 50-100 μL of culture into the wells of the test plate. The pin replicator was sterilized before and between inoculations by immersing in ethanol and flaming. The alternative method of inoculation was by directly pipetting 20 μL of a 1:20 dilution of each culture or spore suspension into the appropriate wells of the test plates.

Compound: OCC1CCC(CO)CC1 (stereo not shown) [1,4-CHDM, 1,4-cyclohexanedimethanol]
- Enhancement of the preservative (inhibitory) action of Killem biocide (in words) ([1]; Killem biocide 200 ppm, 1,4-CHDM 0.2-0.5 wt %): enhanced the preservative (inhibitory) action of the Killem biocide
- Enhancement of the preservative (inhibitory) action of Killem biocide (in words) ([1]; biocide 50 ppm or 100 ppm, or 1,4-CHDM 0.1 wt %): No enhancement
- Growth (visual turbidity rating) ([1]; 1,4-CHDM 0.1% (v/v)): 3
- Growth (visual turbidity rating) ([1]; 1,4-CHDM 0.2% (v/v)): 3
- Growth (visual turbidity rating) ([1]; 1,4-CHDM 0.3% (v/v)): 3
- Growth (visual turbidity rating) ([1]; 1,4-CHDM 0.4% (v/v)): 3
- Growth (visual turbidity rating) ([1]; 1,4-CHDM 0.5% (v/v)): 3
- QA/a ([2]; CHDM alone (QA) or in combination with BA:DHA (a), plate 139D, day 1): 3.11
- QA/a ([2]; CHDM alone (QA) or in combination with BA:DHA (a), plate 139D, day 2): 4.15
- QA/a ([2]; CHDM alone (QA) or in combination with BA:DHA (a), plate 220D, day 1): 3.30
- QA/a ([2]; CHDM alone (QA) or in combination with BA:DHA (a), plate 220D, day 2): 3.30
- QA/a ([2]; CHDM alone (QA) or in combination with BA:DHA (a), plate 235D, day 1): 5.00
- QA/a ([2]; CHDM alone (QA) or in combination with BA:DHA (a), plate 235D, day 2): 5.00
- QA/a ([2]; CHDM: MIC alone (QA) or conc. in combination with CP (a), plate 138D, day 1): 3.11
- QA/a ([2]; CHDM: MIC alone (QA) or conc. in combination with CP (a), plate 138D, day 2): 4.15
- QA/a ([2]; CHDM: MIC alone (QA) or conc. in combination with MIT (a), plate 137D, day 2): 4.15
- QA/a ([2]; CHDM: MIC alone (QA) or conc. in combination with MP (a), plate 166D, day 1): 3.30
- QA/a ([2]; CHDM: MIC alone (QA) or conc. in combination with MP (a), plate 166D, day 2): 3.30
- QA, MIC of CHDM alone ([2]; day 1 of incubation, plate 125D (CG series)): 3.11 weight percent
- QA, MIC of CHDM alone ([2]; day 1 of incubation, plates 124D, 219D, 234D (PE series)): 3.30 weight percent and 3.75 weight percent and 3.11 weight percent
- QA, MIC of CHDM alone ([2]; day 2 of incubation, plate 125D (CG series)): 3.11 weight percent
- QA, MIC of CHDM alone ([2]; day 2 of incubation, plates 124D, 219D (PE series)): 3.11 weight percent and 3.30 weight percent
- QA/a: concentration of CHDM alone (QA, MIC) ([2]; Day 1): 3.11 weight percent
- QA/a: concentration of CHDM alone (QA, MIC) ([2]; Day 2): 4.15 weight percent
- QA, MIC of CHDM alone ([3]; day 2 of incubation, plate 128B (MP series)): 3.00 weight percent
- QA, MIC of CHDM alone ([3]; day 2 of incubation, plates 116B, 240B, 252B (PE series)): 5.85 weight percent and 6.67 weight percent and 3.56 weight percent
- QA, MIC of CHDM alone ([3]; day 2 of incubation, plates 117B, 226B, 254B (CG series)): 5.63 weight percent and 5.00 weight percent and 3.56 weight percent
- QA, MIC of CHDM alone ([3]; day 3 of incubation, plate 128B (MP series)): 4.00 weight percent
- QA, MIC of CHDM alone ([3]; day 3 of incubation, plates 116B, 240B, 252B (PE series)): 4.75 weight percent and 5.85 weight percent and 6.67 weight percent
- QA, MIC of CHDM alone ([3]; day 3 of incubation, plates 117B, 254B (CG series)): 4.75 weight percent and 6.67 weight percent
- QA/a ([3]; CHDM alone (QA) or in combination with BA:DHA (a), plate 131B, day 3): 5.33
- QA/a ([3]; CHDM alone (QA) or in combination with BA:DHA (a), plate 131B, day 4): 5.33
- QA/a ([3]; CHDM alone (QA) or in combination with BA:DHA (a), plate 239B, day 2): 5.85
- QA/a ([3]; CHDM alone (QA) or in combination with BA:DHA (a), plate 239B, day 3): 5.85
- QA/a ([3]; CHDM alone (QA) or in combination with BA:DHA (a), plate 258B, day 2): 5.00
- QA/a ([3]; CHDM alone (QA) or in combination with BA:DHA (a), plate 258B, day 3): 6.67
- QA/a ([3]; CHDM alone (QA) or in combination with DMDM hydantoin (a), plate 241B, day 2): 5.85
- QA/a ([3]; CHDM alone (QA) or in combination with DMDM hydantoin (a), plate 241B, day 3): 5.85
- QA/a ([3]; CHDM alone (QA) or in combination with DMDM hydantoin (a), plate 244B, day 2): 6.00
- QA/a ([3]; CHDM alone (QA) or in combination with DMDM hydantoin (a), plate 244B, day 3): 8.00
- QA/a ([3]; CHDM alone (QA) or in combination with DMDM hydantoin (a), plate 263B, day 2): 8.00
- QA/a ([3]; CHDM alone (QA) or in combination with DMDM hydantoin (a), plate 263B, day 3): 8.00
- QA/a ([3]; CHDM alone (QA) or in combination with DMDM hydantoin (a), plate 264B, day 2): 6.67
- QA/a ([3]; CHDM alone (QA) or in combination with DMDM hydantoin (a), plate 264B, day 3): 6.67
- QA/a ([3]; CHDM: MIC alone (QA) or conc. in combination with CP (a), plate 130B, day 2): 3.00
- QA/a ([3]; CHDM: MIC alone (QA) or conc. in combination with CP (a), plate 130B, day 3): 4.00
- QA/a ([3]; CHDM: MIC alone (QA) or conc. in combination with CP (a), plate 227B, day 2): 5.63
- QA/a ([3]; CHDM: MIC alone (QA) or conc. in combination with CP (a), plate 227B, day 3): 5.63
- QA/a ([3]; CHDM: MIC alone (QA) or conc. in combination with CP (a), plate 256B, day 2): 6.67
- QA/a ([3]; CHDM: MIC alone (QA) or conc. in combination with CP (a), plate 256B, day 3): 6.67
- QA/a ([3]; CHDM: MIC alone (QA) or conc. in combination with MIT (a), plate 162B, day 3): 5.33
- QA/a ([3]; CHDM: MIC alone (QA) or conc. in combination with MIT (a), plate 200B, day 2): 6.23
- QA/a ([3]; CHDM: MIC alone (QA) or conc. in combination with MIT (a), plate 200B, day 3): 6.23
- QA/a: concentration of CHDM alone (QA, MIC) ([3]; Day 2): 4.00 weight percent and 3.38 weight percent
- QA/a: concentration of CHDM alone (QA, MIC) ([3]; Day 3): 4.50 weight percent
